The values below come from patent publication US4545991A, “Difficidin and derivative antibacterials” (Merck & Co., Inc., priority 1983, dated 1985).

One series concerns K. pneumoniae Kl^+. Nature of the series: MIC, in vitro agar dilution assay, aerobic bacteria (Table II). Format: cell-based. Particulars: 10^6 CFU per spot.
In series [1] the test system is Bifidobacterium dentium Fox^r. Nature of the series: MIC, in vitro agar dilution assay, anaerobic bacteria (Table III). Format: cell-based. The note with it: Bifidobacterium dentium Fox^r; 10^6 CFU per spot. For orientation: In agar dilution the substance is mixed into plates at graded concentrations.
Another series concerns E. coli TEM 2^+ DC 2. The series is described as follows: MIC, in vitro agar dilution assay, aerobic bacteria (Table II). In kind it is cell-based. The note with it: E. coli TEM 2^+ DC 2; 10^6 CFU per spot.
The nature of a further series: pH of aqueous solution. Format: physicochemical.
The next series relates to Ent. aerogenes. The series is described as follows: MIC, in vitro agar dilution assay, aerobic bacteria (Table II). The note with it: Ent. aerogenes; 10^6 CFU per spot. Format: cell-based.
Series [2] relates to Ps. aeruginosa. The series is described as above. The note with it: Ps. aeruginosa, first unmarked strain; 10^6 CFU per spot. Format: cell-based.
The subject of series [3] is B. fragilis NCCLS control strain. The series is described as follows: MIC, in vitro agar dilution assay, anaerobic bacteria (Table III). The note with it: 10^6 CFU per spot. Format: cell-based.
Another series deals with B. ovatus Pen^r. The description is as above. Particulars: 10^6 CFU per spot. In kind it is cell-based.
The subject of series [4] is Fusobacterium mortiferum Fox^r. The series is described as above. Format: cell-based. The note with it: 10^6 CFU per spot.
In series [5] the test system is Klebsiella pneumoniae MB 4005. Nature of the series: MIC listed with mouse protection test (Table IV). Format: cell-based.
The test system of another series is Eubacterium limosum. Nature of the series: MIC, in vitro agar dilution assay, anaerobic bacteria (Table III). Format: cell-based. The note with it: 10^6 CFU per spot.
In another series the test system is C. difficile Fox^r. Described as above. Particulars: C. difficile Fox^r; 10^6 CFU per spot. Format: cell-based.
The next series concerns aerobic microorganisms. The series is described as follows: antibacterial activity against aerobic microorganisms, summary. In kind it is cell-based. The note with it: such as Pseudomonas aeruginosa and Staphyloccoccus aureus.
In a further series the test system is Actinomyces naeslundii. Nature of the series: MIC, in vitro agar dilution assay, anaerobic bacteria (Table III). The note with it: 10^6 CFU per spot. Format: cell-based.
Series [6] relates to Ps. aeruginosa. The series is described as follows: MIC, in vitro agar dilution assay, aerobic bacteria (Table II). Format: cell-based. The note with it: Ps. aeruginosa, second unmarked strain; 10^6 CFU per spot.
Series [7] deals with B. fragilis Clind^r Fox^r Tet^r. Nature of the series: MIC, in vitro agar dilution assay, anaerobic bacteria (Table III). In kind it is cell-based. Particulars: 10^6 CFU per spot.
For a further series, the system named is E. coli TEM 2^+. The series is described as follows: MIC, in vitro agar dilution assay, aerobic bacteria (Table II). Format: cell-based. Particulars: E. coli TEM 2^+; 10^6 CFU per spot.
For the next series, the system named is C. ramosum. The series is described as follows: MIC, in vitro agar dilution assay, anaerobic bacteria (Table III). In kind it is cell-based. The note with it: 10^6 CFU per spot.
The nature of the next series: solubility. In kind it is physicochemical. The note with it: water, lower alcohols such as methanol and ethanol.
The test system of another series is Ps. aeruginosa RPL 11^+. The series is described as follows: MIC, in vitro agar dilution assay, aerobic bacteria (Table II). Format: cell-based. Particulars: Ps. aeruginosa RPL 11^+; 10^6 CFU per spot.
A further series relates to Ent. cloacae P99^-. The series is described as above. Format: cell-based. Particulars: Ent. cloacae P99^-; 10^6 CFU per spot.
A short description of series [8]: decomposition during lyophilization. In kind it is physicochemical. Particulars: lyophilization of (IV) to (V). The protocol: There is evidence that from 10-15% decomposition of oxydifficidin may have occurred during lyophilization of (IV) to (V). Based on the lyophilized weight of (V) and the UV analysis of (IV), A1 cm^1% (275 nm)--438 is calculated.

Broadly, the MIC is the lowest concentration found to suppress growth. The low end stands for a more susceptible organism, the high end for a less susceptible organism.

Structures are written as SMILES. In brackets after ≈: the same amount, converted by molar mass.

Regarding `C=CC=C(C)CCC1CC=CC=C(C)C(OP(=O)(O)O)CCCC=CC=CC=CCC(C)C(=C)CC(=O)O1` (stereo not drawn) [Difficidin, difficidin], the minimum inhibitory concentration (MIC) against K. pneumoniae Kl^+ came out at 8.0 mg/L (≈ 14.7 µM); in series [1], 32 mg/L (≈ 58.8 µM); in the series with E. coli TEM 2^+ DC 2, 8.0 mg/L (≈ 14.7 µM); with Ent. aerogenes, 8.0 mg/L (≈ 14.7 µM); against Ps. aeruginosa [2], 8.0 mg/L (≈ 14.7 µM); in [3], 0.06 mg/L (≈ 0.11 µM). Also, the MIC against B. ovatus Pen^r is 0.125 mg/L (≈ 0.229 µM); in series [4], 0.03 mg/L (≈ 0.0551 µM); in [5] it was 8 mg/L (≈ 14.7 µM); against Eubacterium limosum, > 128 mg/L; in the series on C. difficile Fox^r, 0.06 mg/L (≈ 0.11 µM); in the series on Actinomyces naeslundii it was > 128 mg/L. Moreover, the MIC against Ps. aeruginosa [6] was found to be 8.0 mg/L (≈ 14.7 µM); in series [7], 0.25 mg/L (≈ 0.459 µM); in the series on E. coli TEM 2^+, 8.0 mg/L (≈ 14.7 µM); against C. ramosum, 2 mg/L (≈ 3.67 µM); in the series on Ps. aeruginosa RPL 11^+ it was 8.0 mg/L (≈ 14.7 µM); against Ent. cloacae P99^-, 8.0 mg/L (≈ 14.7 µM). The “pH of 0.1% by weight aqueous solution” value in “pH of aqueous solution” was determined as 6.9. Further, the “potency against aerobic microorganisms relative to oxydifficidin” value with aerobic microorganisms is listed as “more potent than oxydifficidin”. For the same compound, the solubility result in “solubility” was “soluble in water, lower alcohols such as methanol and ethanol”.

Turning to `C=CC=C(C)CCC1CC=CC=C(C)C(OP(=O)(O)O)CCCC=CC=CC=CC(O)C(C)C(=C)CC(=O)O1` (stereo not drawn) [Oxydifficidin, oxydifficidin], the MIC worked out at 8.0 mg/L (≈ 14.3 µM) in the series with K. pneumoniae Kl^+; 8.0 mg/L (≈ 14.3 µM) in the series on E. coli TEM 2^+ DC 2; 32.0 mg/L (≈ 57.1 µM) in the series on Ent. aerogenes; 32.0 mg/L (≈ 57.1 µM) with Ps. aeruginosa [2]; 0.25 mg/L (≈ 0.446 µM) in [3]; 0.25 mg/L (≈ 0.446 µM) against B. ovatus Pen^r. For the same compound, the minimum inhibitory concentration (MIC) in series [4] is 0.125 mg/L (≈ 0.223 µM); in series [5], 8 mg/L (≈ 14.3 µM); against Eubacterium limosum, > 128 mg/L; against C. difficile Fox^r, 0.06 mg/L (≈ 0.107 µM); in the series on Actinomyces naeslundii, 64 mg/L (≈ 114 µM); in the series with Ps. aeruginosa [6] it was 32.0 mg/L (≈ 57.1 µM). Further, the minimum inhibitory concentration (MIC) in series [7] turned out to be 0.25 mg/L (≈ 0.446 µM); against E. coli TEM 2^+, 16.0 mg/L (≈ 28.5 µM); with C. ramosum, 2 mg/L (≈ 3.57 µM); with Ps. aeruginosa RPL 11^+, 16.0 mg/L (≈ 28.5 µM); in the series on Ent. cloacae P99^-, 64.0 mg/L (≈ 114 µM). The decomposition during lyophilization in series [8] is 10-15%.
